Measured values taken from article PMC8213057, “Targeting ALK2: An Open Science Approach to Developing Therapeutics for the Treatment of Diffuse Intrinsic Pontine Glioma” (Journal of Medicinal Chemistry, 2020).

Columns and labels:
[1] = target: ERBB2/HER2 (Homo sapiens, UniProt P04626); details: 1 μM; Run 1, Run 2
[2] = target: BLK (Homo sapiens, UniProt P51451); experiment: biochemical; details: read-out: % enzyme activity, 1 μM; Run 1, Run 2
[3] = target: JNK2 (Homo sapiens, UniProt P45984); details: 1 μM; Run 1, Run 2
[4] = target: CK1g2 (Homo sapiens, UniProt P78368); details: 1 μM; Run 1, Run 2
[5] = target: T1, GLK/MAP4K3 (Homo sapiens, UniProt Q8IVH8); details: 1 μM; Run 1, Run 2
T1 sequence (Q8IVH8 1-894): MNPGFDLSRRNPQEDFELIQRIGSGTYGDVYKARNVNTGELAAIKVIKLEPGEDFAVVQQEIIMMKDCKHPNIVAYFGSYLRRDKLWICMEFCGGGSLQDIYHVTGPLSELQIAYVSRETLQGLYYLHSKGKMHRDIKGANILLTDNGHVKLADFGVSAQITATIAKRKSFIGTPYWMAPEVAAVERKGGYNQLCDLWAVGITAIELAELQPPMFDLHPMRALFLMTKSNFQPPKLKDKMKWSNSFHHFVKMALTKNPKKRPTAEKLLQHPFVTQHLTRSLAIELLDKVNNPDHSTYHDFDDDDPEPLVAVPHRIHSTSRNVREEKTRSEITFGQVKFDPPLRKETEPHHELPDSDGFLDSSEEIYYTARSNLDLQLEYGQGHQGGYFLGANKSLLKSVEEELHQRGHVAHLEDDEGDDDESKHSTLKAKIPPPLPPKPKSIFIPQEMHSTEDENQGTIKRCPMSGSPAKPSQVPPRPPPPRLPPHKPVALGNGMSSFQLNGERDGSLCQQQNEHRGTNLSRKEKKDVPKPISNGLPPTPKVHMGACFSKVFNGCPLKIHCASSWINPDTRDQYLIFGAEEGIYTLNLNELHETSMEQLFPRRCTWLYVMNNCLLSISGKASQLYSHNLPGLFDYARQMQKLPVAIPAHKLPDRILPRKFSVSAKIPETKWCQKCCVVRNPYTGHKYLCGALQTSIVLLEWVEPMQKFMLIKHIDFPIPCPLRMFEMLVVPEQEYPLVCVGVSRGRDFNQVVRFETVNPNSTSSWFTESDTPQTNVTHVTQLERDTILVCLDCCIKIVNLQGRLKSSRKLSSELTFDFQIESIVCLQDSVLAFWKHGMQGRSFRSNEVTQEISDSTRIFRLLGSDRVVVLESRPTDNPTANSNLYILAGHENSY

[6] = target: T2, AXL (Homo sapiens, UniProt P30530); experiment: biochemical; details: read-out: % enzyme activity, 1 μM; Run 1, Run 2
T2 sequence (P30530 26-894): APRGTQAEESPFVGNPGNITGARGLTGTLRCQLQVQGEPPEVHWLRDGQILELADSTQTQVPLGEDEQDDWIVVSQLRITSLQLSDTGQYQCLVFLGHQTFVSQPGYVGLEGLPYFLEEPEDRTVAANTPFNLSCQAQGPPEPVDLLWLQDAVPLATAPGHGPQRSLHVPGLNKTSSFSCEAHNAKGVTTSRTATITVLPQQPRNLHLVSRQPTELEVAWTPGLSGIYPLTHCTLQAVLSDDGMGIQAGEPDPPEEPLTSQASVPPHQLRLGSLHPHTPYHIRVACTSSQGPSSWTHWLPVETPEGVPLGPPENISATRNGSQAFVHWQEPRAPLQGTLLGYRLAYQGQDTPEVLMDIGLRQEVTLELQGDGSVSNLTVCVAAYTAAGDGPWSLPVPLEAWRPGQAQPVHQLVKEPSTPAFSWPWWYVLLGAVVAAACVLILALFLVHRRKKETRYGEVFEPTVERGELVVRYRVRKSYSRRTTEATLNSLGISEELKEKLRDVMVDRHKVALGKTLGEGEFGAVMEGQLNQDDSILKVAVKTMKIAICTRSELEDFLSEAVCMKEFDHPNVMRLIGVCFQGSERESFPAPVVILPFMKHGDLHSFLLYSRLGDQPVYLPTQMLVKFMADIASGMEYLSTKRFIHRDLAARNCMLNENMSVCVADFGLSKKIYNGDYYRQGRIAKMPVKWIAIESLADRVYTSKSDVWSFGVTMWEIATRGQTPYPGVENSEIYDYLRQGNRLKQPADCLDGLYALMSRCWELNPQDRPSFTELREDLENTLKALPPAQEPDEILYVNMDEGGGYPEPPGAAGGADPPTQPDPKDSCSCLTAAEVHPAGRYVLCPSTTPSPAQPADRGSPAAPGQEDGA

[7] = target: T3, MYLK4 (Homo sapiens, UniProt Q86YV6); experiment: biochemical; details: read-out: % enzyme activity, 1 μM; Run 1, Run 2
T3 sequence (Q86YV6 1-388): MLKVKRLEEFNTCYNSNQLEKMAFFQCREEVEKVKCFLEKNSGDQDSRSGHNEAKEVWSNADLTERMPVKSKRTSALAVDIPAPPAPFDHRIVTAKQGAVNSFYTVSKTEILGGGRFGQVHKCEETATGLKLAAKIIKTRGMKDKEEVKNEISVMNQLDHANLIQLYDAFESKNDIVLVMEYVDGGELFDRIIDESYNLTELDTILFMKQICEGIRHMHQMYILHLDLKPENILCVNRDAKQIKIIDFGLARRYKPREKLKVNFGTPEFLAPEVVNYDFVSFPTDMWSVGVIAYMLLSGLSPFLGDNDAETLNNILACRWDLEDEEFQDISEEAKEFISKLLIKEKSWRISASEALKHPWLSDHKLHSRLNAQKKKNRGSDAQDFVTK

[8] = target: PKCtheta (Homo sapiens, UniProt Q04759); details: 1 μM; Run 1, Run 2
[9] = target: MNK2 (Homo sapiens, UniProt Q9HBH9); experiment: biochemical; details: read-out: % enzyme activity, 1 μM; Run 1, Run 2
MNK2, sequence (Q9HBH9 whole entry): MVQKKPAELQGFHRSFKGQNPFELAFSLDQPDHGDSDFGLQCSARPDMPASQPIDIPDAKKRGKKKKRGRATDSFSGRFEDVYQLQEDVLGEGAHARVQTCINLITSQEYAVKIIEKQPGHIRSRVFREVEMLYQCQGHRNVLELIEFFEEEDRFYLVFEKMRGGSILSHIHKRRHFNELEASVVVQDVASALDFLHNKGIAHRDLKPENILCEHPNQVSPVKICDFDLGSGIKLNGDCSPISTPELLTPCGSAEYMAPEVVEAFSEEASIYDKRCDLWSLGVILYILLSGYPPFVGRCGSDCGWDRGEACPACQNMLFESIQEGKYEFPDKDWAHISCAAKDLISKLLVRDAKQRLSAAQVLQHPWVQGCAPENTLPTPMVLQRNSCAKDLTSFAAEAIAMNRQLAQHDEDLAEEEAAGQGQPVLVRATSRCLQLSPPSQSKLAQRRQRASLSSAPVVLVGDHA

JNK2, sequence (P45984 whole entry): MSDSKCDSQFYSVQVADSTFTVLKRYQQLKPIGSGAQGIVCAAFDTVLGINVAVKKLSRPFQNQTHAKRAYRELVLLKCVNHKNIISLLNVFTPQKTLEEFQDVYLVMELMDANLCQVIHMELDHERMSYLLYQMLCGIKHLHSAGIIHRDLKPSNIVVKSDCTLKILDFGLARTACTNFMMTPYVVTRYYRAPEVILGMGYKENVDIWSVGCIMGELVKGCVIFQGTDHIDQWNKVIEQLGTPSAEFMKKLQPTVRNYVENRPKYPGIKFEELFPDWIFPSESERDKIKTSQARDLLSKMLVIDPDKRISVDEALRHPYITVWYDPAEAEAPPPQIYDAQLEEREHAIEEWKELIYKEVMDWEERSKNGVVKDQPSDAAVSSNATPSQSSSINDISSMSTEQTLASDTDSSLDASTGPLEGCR
ERBB2/HER2, sequence (P04626 23-1255): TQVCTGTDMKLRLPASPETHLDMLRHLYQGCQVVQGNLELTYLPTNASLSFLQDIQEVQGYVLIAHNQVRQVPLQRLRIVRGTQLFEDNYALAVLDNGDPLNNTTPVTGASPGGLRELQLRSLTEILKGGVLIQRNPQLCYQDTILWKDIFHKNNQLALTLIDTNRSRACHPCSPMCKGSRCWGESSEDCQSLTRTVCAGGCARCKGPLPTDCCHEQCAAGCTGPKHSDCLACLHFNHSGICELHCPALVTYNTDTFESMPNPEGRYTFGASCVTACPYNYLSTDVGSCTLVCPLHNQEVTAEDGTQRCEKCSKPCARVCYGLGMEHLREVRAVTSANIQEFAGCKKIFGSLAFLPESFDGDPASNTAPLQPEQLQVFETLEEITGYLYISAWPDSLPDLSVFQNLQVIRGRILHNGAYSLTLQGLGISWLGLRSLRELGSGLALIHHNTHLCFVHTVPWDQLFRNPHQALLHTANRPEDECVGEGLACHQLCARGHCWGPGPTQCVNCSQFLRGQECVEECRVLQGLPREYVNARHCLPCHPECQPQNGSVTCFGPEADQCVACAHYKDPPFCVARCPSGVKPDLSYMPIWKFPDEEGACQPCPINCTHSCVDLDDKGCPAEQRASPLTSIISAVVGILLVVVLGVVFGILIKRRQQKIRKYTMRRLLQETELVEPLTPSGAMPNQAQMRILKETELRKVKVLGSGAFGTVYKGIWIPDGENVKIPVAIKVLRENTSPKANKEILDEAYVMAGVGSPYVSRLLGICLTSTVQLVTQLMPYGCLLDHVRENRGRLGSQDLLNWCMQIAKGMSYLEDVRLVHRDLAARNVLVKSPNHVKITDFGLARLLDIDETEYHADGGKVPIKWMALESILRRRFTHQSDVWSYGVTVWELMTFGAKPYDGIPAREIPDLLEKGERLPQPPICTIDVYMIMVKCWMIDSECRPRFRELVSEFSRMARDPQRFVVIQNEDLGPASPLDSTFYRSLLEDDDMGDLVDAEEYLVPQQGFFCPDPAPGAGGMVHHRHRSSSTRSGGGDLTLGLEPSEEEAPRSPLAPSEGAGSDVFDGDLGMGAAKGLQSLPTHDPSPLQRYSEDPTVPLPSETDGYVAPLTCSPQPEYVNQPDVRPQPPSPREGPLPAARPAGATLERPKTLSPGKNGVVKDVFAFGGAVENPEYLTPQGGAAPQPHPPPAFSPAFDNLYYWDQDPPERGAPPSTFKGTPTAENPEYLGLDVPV
BLK, sequence (P51451 whole entry): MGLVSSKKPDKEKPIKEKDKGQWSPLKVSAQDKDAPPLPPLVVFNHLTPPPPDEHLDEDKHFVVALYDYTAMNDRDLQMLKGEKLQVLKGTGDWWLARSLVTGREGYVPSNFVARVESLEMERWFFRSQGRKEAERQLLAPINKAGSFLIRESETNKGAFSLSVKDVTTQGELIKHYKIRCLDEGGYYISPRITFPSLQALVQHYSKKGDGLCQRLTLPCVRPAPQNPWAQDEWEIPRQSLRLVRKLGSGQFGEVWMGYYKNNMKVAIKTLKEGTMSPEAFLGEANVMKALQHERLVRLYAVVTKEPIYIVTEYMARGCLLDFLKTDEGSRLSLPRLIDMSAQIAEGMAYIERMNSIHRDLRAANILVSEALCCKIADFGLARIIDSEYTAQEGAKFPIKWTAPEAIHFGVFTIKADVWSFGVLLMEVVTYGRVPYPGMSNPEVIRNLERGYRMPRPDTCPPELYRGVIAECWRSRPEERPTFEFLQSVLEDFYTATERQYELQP
PKCtheta, sequence (Q04759 whole entry): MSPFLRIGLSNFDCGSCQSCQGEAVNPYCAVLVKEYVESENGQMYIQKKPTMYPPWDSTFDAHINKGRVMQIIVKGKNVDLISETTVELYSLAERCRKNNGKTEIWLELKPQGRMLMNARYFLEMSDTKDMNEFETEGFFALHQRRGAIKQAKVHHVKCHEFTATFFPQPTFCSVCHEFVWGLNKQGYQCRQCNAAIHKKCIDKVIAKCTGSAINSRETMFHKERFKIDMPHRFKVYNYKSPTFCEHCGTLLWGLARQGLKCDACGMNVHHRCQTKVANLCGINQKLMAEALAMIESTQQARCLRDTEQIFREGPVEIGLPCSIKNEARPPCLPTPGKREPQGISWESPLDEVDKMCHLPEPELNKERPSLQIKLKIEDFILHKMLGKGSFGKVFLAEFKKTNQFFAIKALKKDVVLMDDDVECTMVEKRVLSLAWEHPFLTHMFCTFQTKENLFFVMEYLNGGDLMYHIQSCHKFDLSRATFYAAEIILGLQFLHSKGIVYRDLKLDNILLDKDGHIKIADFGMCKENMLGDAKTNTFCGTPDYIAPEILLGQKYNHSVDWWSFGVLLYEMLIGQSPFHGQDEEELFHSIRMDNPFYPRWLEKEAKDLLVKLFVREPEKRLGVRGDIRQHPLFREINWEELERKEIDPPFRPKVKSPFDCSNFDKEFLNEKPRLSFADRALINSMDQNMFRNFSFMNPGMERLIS
CK1g2, sequence (P78368 whole entry): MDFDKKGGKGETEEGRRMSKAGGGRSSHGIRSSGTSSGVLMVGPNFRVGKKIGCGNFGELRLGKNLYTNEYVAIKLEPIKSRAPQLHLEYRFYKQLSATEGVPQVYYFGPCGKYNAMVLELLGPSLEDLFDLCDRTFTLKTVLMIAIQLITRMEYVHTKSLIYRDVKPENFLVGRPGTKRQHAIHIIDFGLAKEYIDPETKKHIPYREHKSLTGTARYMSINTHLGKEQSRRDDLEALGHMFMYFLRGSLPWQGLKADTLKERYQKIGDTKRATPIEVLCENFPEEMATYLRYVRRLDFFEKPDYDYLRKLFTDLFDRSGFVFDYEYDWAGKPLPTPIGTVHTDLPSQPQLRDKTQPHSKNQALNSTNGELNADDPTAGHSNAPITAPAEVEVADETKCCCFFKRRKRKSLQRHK

COc1cc(-c2cncc(-c3ccc(N4CCN(C)CC4)cc3)c2C)cc(F)c1C(N)=O [Compound 26a, 2-Fluoro-6-methoxy-4-(4-methyl-5-(4-(4-methylpiperazin-1-yl)phenyl)pyridin-3-yl)benzamide]
% enzyme activity [1]: 89.07% | remaining activity at 1 µM [2]: 97.2% | % enzyme activity [3]: 91.99% | % enzyme activity [4]: 75.72% | % enzyme activity [5]: 88.16% | remaining activity at 1 µM [6]: 81.8% | remaining activity at 1 µM [7]: 97.7% | % enzyme activity [8]: 81.31% | remaining activity at 1 µM [9]: 48.2%

COc1cc(-c2cncc(-c3ccc(N4C[C@@H](C)N(C)[C@@H](C)C4)cc3)c2C)cc(F)c1C(N)=O [Compound 26c, 2-Fluoro-6-methoxy-4-(4-methyl-5-(4-((3R,5S)-3,4,5-trimethylpiperazin-1-yl)phenyl)pyridin-3-yl)benzamide]
% enzyme activity [1]: 95.40% | remaining activity at 1 µM [2]: 104% | % enzyme activity [3]: 94.14% | % enzyme activity [4]: 85.61% | % enzyme activity [5]: 88.71% | remaining activity at 1 µM [6]: 91.3% | remaining activity at 1 µM [7]: 104% | % enzyme activity [8]: 84.96% | remaining activity at 1 µM [9]: 70.8%
